Data as given in patent publication US20070207204A1, “Dosage Form for Time-Varying Patterns of Drug Delivery” (ALZA CORPORATION, priority 2001, published 2007).

Experiment: Osmotic pressure of saturated solutions of osmotically effective compounds and mixtures (vapor pressure osmometer)
Assay type: physicochemical
Conditions: saturated solution in water at 37° C.; Model 302B Vapor Pressure Osmometer
From the text: The term “osmagent”, as used herein, includes osmotically effective solutes, osmotically effective compounds, and osmotic agents. […] Osmotically effective compounds useful for the present purpose include magnesium sulfate, magnesium chloride, sodium chloride, lithium chloride, potassium sulfate, sodium carbonate, sodium sulfite, lithium sulfate, potassium chloride, calcium bicarbonate, sodium sulfate, calcium sulfate, potassium acid phosphate, calcium lactate, d-mannitol, urea, inositol, magnesium succinate, tartaric acid, carbohydrates such as raffinose, sucrose, glucose, maltodextrins, α-d-lactose monohydrate, and mixtures thereof. The osmotically effective compound in layer 18 can be in any physical form such as particle, crystal, pellet, tablet, strip, ground, pulverized, film, or granule. The osmotic pressure of saturated solutions of various osmotically effective compounds and for mixtures of osmotic compounds at 37° C. in water, is listed in Table 1. The osmotic pressure can be measured by a commercially available osmometer that measures the vapor pressure difference between pure water and the solution to be analyzed. According to standard thermodynamic principles, the vapor pressure difference is converted into osmotic pressure. In Table 1, osmotic pressures of from 20 atm to 500 atm are set forth. However, the invention includes the use of lower osmotic pressures, and higher osmotic pressures than from 20 atm to 500 atm. The osmometer used for the present measurements is Model 302B, Vapor Pressure Osmometer, manufactured by the Hewlett Packard Co., Avondale, Pa.

Compared with O=C(CO)[C@@H](O)[C@H](O)[C@H](O)CO [Fructose], OC[C@@H](O)[C@@H](O)[C@H](O)[C@H](O)CO [Mannitol] is lower in “OSMOTIC PRESSURE (atm)” value: 355 atm for the first, 38 atm for the second.

Going from [Cl-].[K+] [Potassium Chloride] to [Cl-].[Na+] [Sodium Chloride], the “OSMOTIC PRESSURE (atm)” value rises from 245 atm to 356 atm.

Compared with O=S(=O)([O-])[O-].[K+].[K+] [Potassium Sulfate], O=P([O-])([O-])O.[Na+].[Na+] [Sodium Phosphate Dibasic-Anhydrous] is lower in “OSMOTIC PRESSURE (atm)” value: 39 atm for the first, 29 atm for the second.

O.O.O.O.O.O.O.O=P([O-])([O-])O.[Na+].[Na+] [Sodium Phosphate Dibasic-7H20] and O.O.O.O.O.O.O.O.O.O.O.O.O=P([O-])([O-])O.[Na+].[Na+] [Sodium Phosphate Dibasic-12H20] are the same in “OSMOTIC PRESSURE (atm)” value: 31 atm for the first, 31 atm for the second.

First: O.O=P([O-])(O)O.[Na+] [Sodium Phosphate Monobasic-H20]
Second: O.O.O.O.O.O.O.O.O.O.O.O.O=P([O-])([O-])[O-].[Na+].[Na+].[Na+] [Sodium Phosphate Tribasic-12H20]
The “OSMOTIC PRESSURE (atm)” value of the first is lower: 28 atm for the first, 36 atm for the second.

With OC[C@H]1O[C@@](CO)(O[C@H]2O[C@H](CO)[C@@H](O)[C@H](O)[C@H]2O)[C@@H](O)[C@@H]1O [Sucrose] the “OSMOTIC PRESSURE (atm)” value was 150 atm.
